Laboratory results from patent US6255250A, “Plant growth regulators in pyrrolidone solvents” (BASF Corporation, priority 1997, dated 2001).

Columns and labels:
Cotton = assay type: in vivo; settings: mc column, mepiquat chloride 12 g/ha
Text: This resulting composition was mixed with PIX® mepiquat chloride plant growth regulator (BASF Corporation) such that the mepiquat chloride was applied to cotton in field studies at a rate of 12 g/ha and the {[(isopropylidene)-amino]oxy}-acetic acid-2-(methoxy)-2-oxoethyl ester contained in the solvent with an emulsifier system was applied at 1 and 10 g/ha.

peach = settings: low rate (0.08 mM); cited from earlier work
horticultural plants = settings: several horticultural plants; cited from earlier work
cotton plants = settings: approximately 62.5 to 500 g ai/ha assuming spray volume 500 l/ha; cited from earlier work
physchem = settings: water
Experimental: Formulations of the present invention were prepared as described in Example 1 and were tested for hydrolysis half-life.

C[N+]1(C)CCCCC1 [mepiquat chloride]
Frequency of Positive Yield (Cotton): 38% | Relative Yield (% compared to untreated) (Cotton): 102%

O=P(O)(O)CCCl [ethephon]
effect on bloom and side effects in peach (peach): significantly delayed bloom in peach and reduced side effects | effect on yields and hardiness (horticultural plants): increased the yields and hardiness of several horticultural plants

NCCOC=CC(N)C(=O)O (stereo not drawn) [aminoethoxyvinylglycine]
improvement in a plant growth factor with increasing rate (cotton plants): As the rate of AVG treatment increased, so did the improvement

COC(=O)COC(=O)CON=C(C)C [{[(isopropylidene)-amino]oxy}-acetic acid-2-(methoxy)-2-oxoethyl ester]
half-life (physchem): 12 to 21 days
